Test results from publication doi:10.1101/2024.08.25.609621 (bioRxiv, 2024).
pIC50: −log10 of the molar value. “And” between values parts separate entries of the source, which are not always exact repeats. Equal entries are not always repeated. Where two headings read alike, the source gives them in different places.

Key:
[1] = target: SARS-CoV-2 NSP3 macrodomain (Mac1) (Severe acute respiratory syndrome coronavirus 2, UniProt P0DTD1); experiment: biochemical; type: binding; details: for SARS CoV-2 macrodomain HTRF assay: Hillslope: dose-response fit; for pIC50: read-out: IC50
[2] = target: SARS-CoV-2 NSP3 macrodomain (Mac1), P43 crystal form (Severe acute respiratory syndrome coronavirus 2, UniProt P0DTD1); type: binding; details: for 1-BDC: PanDDA background density correction; for Hit (PanDDA run, overall) / Hit (PanDDA run, DMSO background map) / 1-BDC (PanDDA run, DMSO background map): crystal soak 10 mM; for Total number of conformations: ligand conformations modeled in Mac1 crystal structure; for X-ray crystallography: Binding site: site where the ligand is bound in the X-ray crystal structure; for X-ray crystal structure: TRUE = crystal structure with ligand determined; for Binding site: site of Mac1 where ligand bound in crystal structure
[3] = occupancy estimate from PanDDA BDC
[4] = Single dose, 200 μM, mean of three technical replicates
[5] = crystal soak, soak concentration 10 mM, P43 crystals, TRUE = ligand-binding event identified
[6] = crystal soak, soak concentration 10 mM
[7] = crystal soak, soak concentration 10 mM, event 1
[8] = crystal soak, soak concentration 10 mM, TRUE = ligand modeled
[9] = occupancy estimate from PanDDA 1-BDC
[10] = Dose-response, SARS CoV-2 macrodomain HTRF assay
[11] = Single dose, 200 μM, mean of three technical replicates, read-out: Average % competition
[12] = preliminary screen, compound at 200 μM, mean of 3-4 technical replicates, read-out: % competition in HTRF assay
[13] = crystal soak concentration 20 mM
[14] = crystal soak concentration 20 mM, event 1
[15] = crystal soak concentration 20 mM, P43 crystals
[16] = crystal soak concentration 10 mM, event 1
[17] = crystal soak concentration 10 mM, P43 crystals
[18] = crystal soak concentration 10 mM

Compound	Occupancy difference (refined_occupancy - 2*(1-BDC)) [2]	Refined ligand occupancy (%) [2] [%]	1-BDC [2]	Total number of conformations [2]	2*(1-BDC) (%) [2, 3] [%]	Average % competition [1, 4] [%]	X-ray crystal structure [2]	Pandda run, overall: Hit [2, 5]	PanDDA run, DMSO background map: Hit [2, 6]	PanDDA run, DMSO background map: 1-BDC [2, 7]	2*(1-BDC) (%) [2, 9] [%]	Binding site [2]	inhibition at 200 µM [1, 11] [%]	inhibition at 200 µM [1, 12] [%]	PanDDA run, DMSO background map: Hit [2, 13]	PanDDA run, DMSO background map: 1-BDC [2, 14]	Pandda run, overall: Hit [2, 15]	Pandda run, overall: Modeling comment [2, 6]	Pandda run, overall: Modeling comment [2, 15]	further results
C[C@H]1CC[C@H](CO)N(c2ncnc3[nH]ccc23)C1 (racemic) [AVI-4063]	18	50	0.16	1	32															Hill slope ([1]; HTRF dose-response fit, Mac1): 1.1; SARS CoV-2 macrodomain HTRF assay: Hillslope [1]: 1.1; Hit (PanDDA run, overall) ([2]; P43 crystals): TRUE; Hit (PanDDA run, DMSO background map) [2]: TRUE; 1-BDC (PanDDA run, DMSO background map) ([2]; event 1): 0.21 and 0.16; X-ray crystallography: Binding site [2]: Adenosine
C[C@@H]1CCN(c2ncnc3[nH]ccc23)[C@H](CO)C1 (racemic) [AVI-4064]	0	38	0.19	2	38															Hill slope ([1]; HTRF dose-response fit, Mac1): 1.2; SARS CoV-2 macrodomain HTRF assay: Hillslope [1]: 1.2; Hit (PanDDA run, overall) ([2]; P43 crystals): TRUE; Hit (PanDDA run, DMSO background map) [2]: TRUE; 1-BDC (PanDDA run, DMSO background map) ([2]; event 1): 0.19; X-ray crystallography: Binding site [2]: Adenosine
c1ccc(-n2nnnc2CSc2nnc(NC3CC3)s2)cc1 [AVI-286]			0.11	1		0	TRUE	TRUE	TRUE	0.11	22	Distal								PanDDA run, DMSO background map: Modeled [2, 6]: TRUE; Pandda run, overall: Modeled [2, 8]: TRUE
O=C(O)C(c1ccccc1)n1sc2ccccc2c1=O (stereo not shown) [AVI-288]	0	74	0.37	1	74		TRUE	TRUE	TRUE	0.26		Adenosine	21	21	TRUE	0.37	TRUE	Duplicate, not modeled		pIC50 [1, 10]: < 3.00; PanDDA run, DMSO background map: Modeled [2, 13]: TRUE; Pandda run, overall: Modeled [2, 15]: TRUE
CC(C)n1nnnc1SCc1c(C(=O)O)sc2cccc(F)c12 [AVI-291]	0	68	0.34	1	68		TRUE	TRUE	TRUE	0.25		Adenosine	41	41	TRUE	0.34	TRUE	Duplicate, not modeled	Second ligand conformation, not modeled, DMSO x2	pIC50 [1, 10]: < 3.00; Comment ([2]; comment on ligand modeling / Phe132 loop density): Second ligand conformation, not modeled, DMSO x2; PanDDA run, DMSO background map: Modeled [2, 13]: TRUE; Pandda run, overall: Modeled [2, 15]: TRUE
Nc1nnc(SCCn2c(=O)oc3ccccc32)s1 [AVI-296]			0.06	1		7	TRUE	TRUE	TRUE	0.06	12	Distal								PanDDA run, DMSO background map: Modeled [2, 6]: TRUE; Pandda run, overall: Modeled [2, 8]: TRUE
CCn1c(C)nnc1Sc1cnc2ccccc2n1 [AVI-297]						0		TRUE	TRUE	0.05								Only density for quinoxaline, not modeled		
COc1ccc(NC(=O)NC2CCCC2)cc1-n1nnnc1C [AVI-311]						0									TRUE	0.12	TRUE		Weak density, not modeled	PanDDA run, DMSO background map: 1-BDC [2, 16]: 0.09; Pandda run, overall: Hit [2, 17]: TRUE; Pandda run, overall: Modeling comment [2, 17]: Weak density, not modeled; PanDDA run, DMSO background map: Hit [2, 18]: TRUE
OCC(Cc1ccccc1)Nc1ncnc2[nH]ccc12 (stereo not shown) [AVI-313]			0.18	2			TRUE				36	Adenosine	75	75	TRUE	0.25	TRUE		Duplicate, not modeled	Hill slope [1, 10]: 1.2; Hill slope ([1]; HTRF dose-response fit, Mac1): 1.2; PanDDA run, DMSO background map: 1-BDC [2, 16]: 0.18; Pandda run, overall: Hit [2, 17]: TRUE; Pandda run, overall: Modeled [2, 17]: TRUE; PanDDA run, DMSO background map: Hit [2, 18]: TRUE; PanDDA run, DMSO background map: Modeled [2, 18]: TRUE
O=C(Nc1ccsc1C(=O)O)c1ccc2c(c1)OCO2 [AVI-316]			0.07	1			TRUE				14	Adenosine	29	29	TRUE	0.12	TRUE		Duplicate, not modeled	pIC50 [1, 10]: < 3.00; PanDDA run, DMSO background map: 1-BDC [2, 16]: 0.07; Pandda run, overall: Hit [2, 17]: TRUE; Pandda run, overall: Modeled [2, 17]: TRUE; PanDDA run, DMSO background map: Hit [2, 18]: TRUE; PanDDA run, DMSO background map: Modeled [2, 18]: TRUE
OCC1CC2(CCC2)CN1c1ncnc2[nH]ccc12 (stereo not shown) [AVI-3728]			0.24	2							48							Distal site, weak density, not modeled		Pandda run, overall: Modeled [2, 6]: TRUE; Pandda run, overall: Hit ([2]; crystal soak, soak concentration 10 mM, TRUE = ligand hit): TRUE; X-ray crystallography: Binding site [2]: Adenosine; PanDDA run, DMSO background map: 1-BDC ([2]; soak concentration 10 mM): 0.24; PanDDA run, DMSO background map: Hit ([2]; soak concentration 10 mM): TRUE
